Tested on: yeast strain YM 4271 transformed with pHISi3xE2Fwt
Test: Growth of pHISi3xE2Fwt-transformed yeast colonies on histidine-free minimal medium agar with increasing 3-aminotriazole
Assay type: cell-based
Conditions: no histidine
Protocol: 1 μg of pHISi3xE2Fwt was completely linearized with 10 U of XhoI for 1 hour, purified using the QiaQuick PCR Purification Kit (Qiagen/Hilden, Germany) according to the manufacturer's instructions and taken up in 50 μl of water. […] This culture was incubated with shaking at 30° C. until an optical density of 0.4-0.6 at 600 nm was reached. The culture was then removed by centrifugation at 1000× g for 5 minutes, and the cells were taken up in 1.5 ml of 100 mM lithium acetate pH 7.5, 10 mM Tris-HCl pH 7.5, 1 mM EDTA. 100 μl of said cells, 50 μl of the linearized plasmid and 100 μg of heat-denatured salmon sperm DNA were admixed with 600 μl of a PEG/LiAc solution (100 mM lithium acetate pH 7.5, 10 mM Tris-HCl pH 7.5, 1 mM EDTA, 40% (w/v) polyethylene glycol 4000) and incubated with shaking at 30° C. for 30 min. After adding 70 μl of dimethyl sulfoxide, the mixture was incubated at 42° C. for 15 min. The cells were subsequently removed by centrifugation, washed in 1 ml of 10 mM Tris-HCl pH 7.5, 1 mM EDTA and plated out in their entirety on a minimal medium agar plate without addition of histidine, on which 12 colonies had grown after 7 days at 30° C.

## Nc1nc[nH]n1 [3-aminotriazole]
One clone (yeast3xE2Fwt)
  3-AT concentration at which growth was completely suppressed: 2 mM
  3-AT concentration at which growth was suppressed markedly: 0.5 mM
Remaining 10 clones
  3-AT concentration at which growth was inhibited: > 30 mM
This clone and another clone
  3-AT concentration at which clones did not grow any more: 3 mM
